Measured values: patent US5854004A, “Process for screening substances capable of modulating a receptor-dependent cellular signal transmission path” (Boehringer Ingleheim GmbH, priority 1991, dated 1998)
“Also recorded” adds a separate entry of the source.

Assays:
CHO C12-32 = assay: Luciferase inducibility in CRE-pretest cell clone C12-32; type: cell-based, Chinese hamster; conditions: 20 μM forskolin, 5 hours
Procedure: (This plasmid differs from the pADneo2-C6-BGL described in Example 1) in that the section containing the 6 CRE-elements is duplicated and the β-globin promotor is replaced by the TK-promotor (see Example 1 b)). In order to do this the SalI-HindIII-β-globin-promotor-fragment was replaced by a similarly cut fragment containing the TK-promotor (McKnight, 1980)).
The transfection and testing of the cell clones were carried out as in Example 7 a).

cell line A20 = assay: Luciferase induction in stable TRE-pretest cell line A20 (A549, pBHluc1.3); conditions: A20
Procedure: In order to produce a stable (pre-)test cell line for substances which influence the expression of the luciferase gene by direct or receptor-mediated modulation of the IP3 /DAC-signal transduction pathway, A549 cells were simultaneously transfected with the plasmid pBHluc1.3 and the selection plasmid pRSVneo by electroporation as follows: after removal of the medium the cells were detached from the surface by means of a trypsin/PBS solution, suspended in medium and sedimented for 5 minutes at 250×g. […] 0.8 ml of cell suspension were combined with 20 μg of pBHluc1.3 and 2 μg of pRSVneo. Both plasmids had previously been linearised with BamHI.
(§1) 15-20 days after transfection, individual cell clones were transferred into 96-well microtitre plates and further cultivated. […] Approximately 40,000 cells in each clone were sown, in a procedure repeated 6 times, in 200 μl per well of a light-impervious 96-well microtitre plate coated with tissue culture (Microlite™, Dynatech Laboratories) and incubated overnight at 37° C. Three mixtures were treated with 10 ng TPA/ml and incubated for a further 8 hours. Then the medium was removed and the cells were washed twice with PBS.
(§2) The pretest cell line A20 was transfected, as described under a), by electroporation with the plasmid pAHyg-NK2, which had previously been linearised with BglII. From the day after transfection onwards, the cells were grown in selection medium, as used for the cell line A20 and additionally enriched with 150 μg/ml hygromycin B (Sigma). Individual clones were tested for inducibility of the luciferase activity as described under a).

HeLa cells = assay: Induction of TRE-sensor-DNA (luciferase) in transiently transfected pretest cells, HeLa; conditions: 10 ng TPA/ml or 20 μM forskolin, 18 h
Procedure: (§3) Approximately 1×10^7 cells per transfection were detached from the surface of the culture dish using trypsin and centrifuged for 5 minutes at 1200 rpm at ambient temperature (Heraeus Minifuge), washed once with 5 ml of serum-free medium, centrifuged for 5 minutes at 1200 rpm and suspended in 1 ml of serum-free medium. Then the cells were mixed with 250 μg/ml DEAE-dextrane, 5 μg plasmid DNA and 50 μg/ml chloroquin, incubated for 30 minutes at 37° C., washed once with medium containing no FCS and incubated overnight at 37° C. with 10 ml of fresh serum-containing medium. Then the medium was changed and after 4 hours the cells were induced, either with 10 ng TPA/ml medium or with 20 μM forskolin. […] The cells were lysed by the addition of 100 μl lysing buffer (1% Triton X-100, 25 mM glycylglycine pH 7.8, 15 mM MgSO4, 4 mM EDTA and 1 mM […]), the lysate was centrifuged for 5 minutes and the supernatant was transferred into a fresh test tube. […] The measuring time for light emission was 10 seconds.
(§4) The cell lines A549, HeLa and COS-7 were transiently transfected as described above by the addition of plasmid pBHluc1.3 and induced by the addition of TPA. Cells which were only transfected but not induced were used as a negative control.
(§5) The cell lines A549, HeLa and COS-7 were transiently transfected by the addition of plasmid pADneo(3TRE)BGluci and induced by the addition of TPA or forskolin. Once again, cells which were only transfected but not induced were used as a negative control.

[1] = biological target: human dopamine D1-receptor (Homo sapiens, UniProt P21728); assay: Induction of pADneo2-C6-BGL (CRE) via dopamine-D1-receptor in co-transfected COS-7 cells; conditions: COS-7; 20 μM forskolin or 1 μM apomorphine, 18 h
human dopamine D1-receptor, sequence (P21728 whole entry): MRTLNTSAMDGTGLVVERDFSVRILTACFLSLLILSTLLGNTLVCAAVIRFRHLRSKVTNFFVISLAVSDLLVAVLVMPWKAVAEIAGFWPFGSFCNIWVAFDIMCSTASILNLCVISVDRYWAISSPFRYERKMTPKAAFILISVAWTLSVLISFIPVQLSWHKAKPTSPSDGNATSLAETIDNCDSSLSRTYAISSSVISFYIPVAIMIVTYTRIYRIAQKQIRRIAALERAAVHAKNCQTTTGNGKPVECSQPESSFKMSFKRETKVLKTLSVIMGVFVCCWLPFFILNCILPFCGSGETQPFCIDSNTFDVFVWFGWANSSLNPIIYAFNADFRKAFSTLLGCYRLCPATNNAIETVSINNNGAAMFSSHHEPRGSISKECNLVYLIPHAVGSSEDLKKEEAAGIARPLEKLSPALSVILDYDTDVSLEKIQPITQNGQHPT

[2] = biological target: T1, human neurokinin 2-receptor (Homo sapiens, UniProt P21452); assay: Luciferase activity in NK2-test cell line A20/NK2-122; conditions: A20/NK2-122
T1 sequence (P21452 1-398): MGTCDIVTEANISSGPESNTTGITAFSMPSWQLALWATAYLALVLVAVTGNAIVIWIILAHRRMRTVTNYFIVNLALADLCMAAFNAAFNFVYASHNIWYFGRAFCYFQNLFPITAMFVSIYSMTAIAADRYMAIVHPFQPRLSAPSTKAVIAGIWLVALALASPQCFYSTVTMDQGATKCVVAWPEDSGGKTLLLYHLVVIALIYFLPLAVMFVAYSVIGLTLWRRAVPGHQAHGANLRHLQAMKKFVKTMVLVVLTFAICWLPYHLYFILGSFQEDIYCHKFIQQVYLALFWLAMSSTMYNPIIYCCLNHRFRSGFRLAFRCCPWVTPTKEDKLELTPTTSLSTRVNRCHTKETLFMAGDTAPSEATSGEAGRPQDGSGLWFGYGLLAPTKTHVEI
Procedure: as §1
This Example illustrates the preparation of a test cell line for the human neurokinin 2 (NK2)-receptor which is coupled to the phospholipase C-signal transduction pathway. This test cell line makes it possible, by measurement of the luciferase activity, to identify substances which modulate the intracellular IP3 /DAG concentrations, depending on the receptor.
as §2

A549 cells [3] = conditions: Voraberger et al., 1991; cited from earlier work
cell line CHO C6-13 = assay: Luciferase expression in CRE-pretest cell line CHO C6-13
Procedure: The transfection by electroporation was carried out as follows: after removal of the medium the cells were detached from the surface by means of a trypsin/PBS solution, suspended in medium and pelleted for 5 minutes at 250×g. The cells were washed in HBS (10 mM HEPES pH 7.4, 150 mM NaCl) and pelleted by centrifuging. The cells were suspended in HBS in a density of 1×10^7 cells/ml. 0.8 ml of cell suspension were mixed with 20 μg of DNA of the plasmid pADneo2-C6-BGL linearised with ScaI and transferred into an electroporation dish. […] After the electroporation the cells were diluted in the medium mentioned above, 20,000 cells per 90 mm culture dish was sown and incubated overnight at 37° C.
Two batches of each were treated with 20 μM forskolin and incubated for a further 5 hours at 37° C. Then the medium was removed from all the cells and the cells were washed with PBS.
Cells of the cell line CHO C6-13 were treated for 3 hours with various substances which alter the intracellular concentration of cAMP or IP3 /DAG or simulate a change in concentration, and also treated with receptor-specific agonists which influence the above-mentioned signal transduction mechanisms.

A549 cells [4] = assay: Induction of TRE-sensor-DNA (luciferase) in transiently transfected pretest cells, A549; conditions: A549
Procedure: as §3, §4, §5
(§6) The cell lines COS-7 and A549 were transiently transfected by the addition of plasmid pADneo(3×TREd16)BGluci, pADneo(3×TREd21)BGluci, pADneo(3×TREd24)BGluci, pADneo(3×TREd34)BGluci, pADneo(6×TREd16)BGluci, pADneo(6×TREd21)BGluci, pADneo(6×TREd24)BGluci or pADneo(6×TREd34)BGluci and induced by the addition of TPA or forskolin.

COS-7 cells = assay: Induction of TRE-sensor-DNA (luciferase) in transiently transfected pretest cells, COS-7; conditions: COS-7
Procedure: as §3, §4, §5, §6

human 5HT2-receptor = human 5HT2-receptor (Homo sapiens, UniProt P28223); assay: Induction of pADneo2-C6-BGL (CRE) via 5-HT2-receptor in co-transfected COS-7 cells; type: cell-based; conditions: 20 μM forskolin or 10 μ α-methylserotonin-maleate
human 5HT2-receptor, sequence (P28223 whole entry): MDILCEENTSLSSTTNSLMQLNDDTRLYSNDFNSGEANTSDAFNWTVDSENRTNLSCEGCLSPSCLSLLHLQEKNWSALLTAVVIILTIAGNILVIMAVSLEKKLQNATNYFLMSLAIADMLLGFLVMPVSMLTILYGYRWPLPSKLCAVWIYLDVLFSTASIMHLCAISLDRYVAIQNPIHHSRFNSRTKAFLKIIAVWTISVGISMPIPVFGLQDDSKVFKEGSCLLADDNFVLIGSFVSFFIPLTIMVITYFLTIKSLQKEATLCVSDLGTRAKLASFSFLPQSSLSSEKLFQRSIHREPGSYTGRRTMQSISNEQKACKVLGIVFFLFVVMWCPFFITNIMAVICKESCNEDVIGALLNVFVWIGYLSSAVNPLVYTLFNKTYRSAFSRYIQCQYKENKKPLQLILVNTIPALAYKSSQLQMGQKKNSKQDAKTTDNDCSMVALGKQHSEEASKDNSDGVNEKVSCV
Procedure: Induction was carried out with i) 20 μM forskolin (Sigma P8139), ii) 10 μα-methylserotonin-maleate (RBI M-110), and iii) 10 μα-methylserotonin-maleate and 10 μM ketanserin-tartrate (RBI S-006). […] It follows, from the above results, that, depending on 5-HT2 -receptors, only regulation elements which respond to IP3 /DAG (TRE), but not regulation elements which respond to cAMP (CRE) are selectively activated.

[5] = 10 ng TPA/ml or 20 μM forskolin, 18 h

Structure (SMILES): C=C[C@@]1(C)CC(=O)[C@]2(O)[C@@]3(C)[C@@H](O)CCC(C)(C)[C@@H]3[C@H](O)[C@H](OC(C)=O)[C@@]2(C)O1 [forskolin]
- inducibility of luciferase by forskolin, clone C12-32 (CHO C12-32): very high inducibility
- induction of luciferase activity by forskolin (cell line A20): did not result in any induction of luciferase activity
- induction of pADneo(3TRE)BGluci (HeLa cells): not by forskolin
- induction of pBHluc1.3 by TPA or forskolin (HeLa cells): not by forskolin
- induction of luciferase expression (CRE) [1]: induced by forskolin and by apomorphine
- induction of luciferase activity by forskolin [2]: did not result in any induction of luciferase activity
- induction of 1.3 kb ICAM-1 fragment / pBHluc1.3 (A549 cells [3]): cannot be activated by forskolin; also recorded: cannot be induced by forskolin
- inducibility of luciferase by forskolin, clone C6-13 (cell line CHO C6-13; 20 μM forskolin, 5 hours): very high inducibility
- change in luciferase expression/activity (cell line CHO C6-13; 3 hours treatment, FIG. 33): increased
- luciferase induction at concentrations higher than 20 μM (attributed to toxic effects or excessively high cAMP level) (cell line CHO C6-13; > 20 μM forskolin): drop in luciferase induction at even higher concentrations
- EC100 (cell line CHO C6-13; Cricetulus griseus, read-out: concentration of maximum induction of the luciferase reporter gene): 20 µM
- time up to which induction does not change (cell line CHO C6-13; after forskolin stimulation): 4 h
- time after stimulation at which increased luciferase activity can be detected (cell line CHO C6-13; forskolin, FIG. 35A): 60 min
- time to total induction of luciferase expression (cell line CHO C6-13; forskolin, FIG. 35A): 2.5 h
- dependency of ED50 levels on duration of treatment (cell line CHO C6-13; forskolin, FIG. 35B): virtually unaffected
- induction of pADneo(3TRE)BGluci (A549 cells [4]; [5]): not by forskolin
- induction of pADneo(nTREdx)BGluci by forskolin (A549 cells [4]; 20 μM forskolin): none of the constructions can be induced with forskolin
- induction of pADneo(3TRE)BGluci (COS-7 cells; [5]): not by forskolin
- induction of pBHluc1.3 by TPA or forskolin (COS-7 cells; [5]): not by forskolin
- induction of pADneo(nTREdx)BGluci by forskolin (COS-7 cells; 20 μM forskolin): none of the constructions can be induced with forskolin
- induction of luciferase expression (CRE) (human 5HT2-receptor): induced by forskolin
